The text below walks through data of publication PMC12703428, “Development of Granzyme A Turn‐ON Fluorescent Activity‐Based Probes” (Chembiochem, 2025).

Square brackets hold non-standard residues; d marks the D form. Ends that are not written are not given here. Oic = O=C(O)[C@@H]1C[C@@H]2CCCC[C@@H]2N1; Tic = O=C(O)[C@@H]1Cc2ccccc2CN1

Experiment [1] concerns the target T1, GzmA in lysate of NK‐92 cells (Homo sapiens, UniProt P12544).
T1 construct: host or cells: NK-92
T1 sequence (P12544 29-262): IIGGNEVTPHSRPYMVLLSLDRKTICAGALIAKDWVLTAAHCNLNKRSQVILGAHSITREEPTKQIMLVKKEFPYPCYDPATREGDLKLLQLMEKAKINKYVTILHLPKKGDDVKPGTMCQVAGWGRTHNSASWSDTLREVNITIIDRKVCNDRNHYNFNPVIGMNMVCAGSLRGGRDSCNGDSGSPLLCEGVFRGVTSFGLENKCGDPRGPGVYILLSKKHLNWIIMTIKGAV
Briefly: Labeling of GzmA in NK-92 cell lysate. In kind it is biochemical. Particulars: 1 mg/mL lysate, various probe concentrations, 1 h, 37 °C, in-gel fluorescence. Here is the method: Figure 4 Characterization of qABPs in native proteomes. A) Labeling of GzmA by 5 and 6 in lysates of various cell lines (1 h, 37 °C). B) Stability of 5 and 6 in buffer and cell media (11 h, 37 °C). The hydrolysis of probes was measured by monitoring the production of Cy5 fluorescence signal over time. […] C) Labeling of GzmA by probes 3 –6 in NK‐92 cells (2 h, 37 °C). D) Flow cytometry analysis of protein labeling in NK‐92 cells by 3 –5. […] E) Flow cytometry analysis of concentration‐dependent GzmA labeling in NK‐92 cells and S/N of 5 (5 μM, 2 h, 37 °C). […]
Briefly, hGzmA (50 nM) was incubated with either inhibitor 1 or 2 (200 nM), and GzmA fluorogenic substrate […] (100 µM) in 50 mM Tris, 150 mM NaCl, 0.01% Triton X-100 (pH 8) for 15 hr at 37 °C. Recorded fluorescence at Ex/Em: 380/460 nm for residual GzmA […]
Cat. No. CRL-2570) and 4T1 (ATCC Cat. No. CRL-2539) cells were cultured in RPMI supplemented with 10% fetal bovine serum (FBS), 1% penicillin/streptomycin (PS), and 2 mM L-glutamine, while HEK293T and MDA-MB-231 cells (ATCC Cat. No. HTB-26) were cultured in DMEM supplemented likewise as described above. […] The supernatant was collected, and protein concentration was measured using a Pierce BCA protein assay. […]
C. In-gel fluorescence imaging […]

For experiment [2], the target named is T2, GzmK (Homo sapiens, UniProt P49863).
T2 sequence (P49863 27-264): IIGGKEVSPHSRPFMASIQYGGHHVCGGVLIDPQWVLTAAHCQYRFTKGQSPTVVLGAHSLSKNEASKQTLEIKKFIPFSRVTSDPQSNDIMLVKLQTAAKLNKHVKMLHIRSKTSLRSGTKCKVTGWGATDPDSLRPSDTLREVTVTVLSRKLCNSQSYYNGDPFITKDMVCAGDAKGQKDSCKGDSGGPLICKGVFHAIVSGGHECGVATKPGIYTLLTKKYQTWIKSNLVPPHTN
Briefly: Cross-reactivity labeling, GzmK. In kind it is biochemical. Particulars: GzmK 100 nM, probe 10-100 nM, 2 h, 37 °C, in-gel fluorescence. How it is done: Protease (100 nM) HNE PR3 GzmK GzmA
Protease (100 nM) GzmA GzmK
Supplementary Figure 2. Cross-reactivity of probes. (A) Labeling of GzmA, GzmK, PR3, and HNE
(100 nM, 2 h, 37 °C) by 100 nM of 5 and 6. (B) Labeling of GzmA and GzmK (100 nM, 2 h, 37 °C) by
100 nM of 3 – 6. (C) Concentration-dependent labeling of GzmA and GzmK (100 nM, 2 h, 37 °C) by 5 and
6. Protein samples were analyzed by SDS-PAGE and in-gel fluorescence scanning for Cy5 signal.
Protein loading was confirmed by SYPRO Ruby staining. […]

Take [Tic]G[Oic]R [compound 6]: in experiment [1], the “Labeling of GzmA in NK-92 lysate” value was “selectively labeled GzmA in a concentration‐dependent manner at low nanomolar levels”. Also, the “Labeling of GzmK (cross-reactivity)” value in experiment [2] was “labeling was significantly weaker than for GzmA and required considerably higher probe concentrations”.
Regarding IGNR [compound 5], the “Labeling of GzmA in NK-92 lysate” value in experiment [1] is given as “selectively labeled GzmA in a concentration‐dependent manner at low nanomolar levels”. For the same substance, in experiment [2], the “Labeling of GzmK (cross-reactivity)” value is “labeling was significantly weaker than for GzmA and required considerably higher probe concentrations”.
